# Reference: US20090099502A1, “Microneedle Device And Transdermal Administration Device Provided With Microneedles” (HISAMITSU PHARMACEUTICAL CO., INC., priority 2006, published 2009)
# “Also recorded” adds a separate entry of the source. Where a name gives a salt, the structure may show the parent alone.
# Columns and labels:
# [1] = test system: hairless rat skin
# Source text: (§1) A piece of foam tape (#9773, 7.84 cm^2) of 3M Company was pasted on the back side of the microneedle substrate in such a way that the adhesive layer of the tape would face the skin. The projecting ends of the tape were attached to the skin to bring the microneedle side of the microneedle substrate in close contact with the skin. To start the experiment, the microneedle substrate was placed on the skin and pressure applied (2 kg/patch for 5 seconds) on the substrate with a finger.
# (§2) Microneedles (800 piles/patch) were coated all over their surfaces with 30 μl/patch one of the coating carriers, and dried at room temperature for 12 h for fixing. Skin removed from hairless rats was pierced with microneedles coated with the drug formulations, including those having their free forms, and samples were removed periodically. Phosphate buffer solution (PBS) was used for the receptor layer. The receptor solution sample, sampled at different time points, and acetonitrile were mixed at 1:1 ratio, stirred, centrifuged (15,000 rpm, 5° C., 5 minutes), then the supernatant was recovered, and its drug content measured by HPLC.
# Animal species: Hairless rat (n=3)
# [2] = test system: hairless rat skin; assay: Skin permeation tests with a drug in its free and salt forms using hairless rats (Example 7); details: both the fumarate and the free form, PVA117 coating
# Source text: as §1, §2
# Animal species: Hairless rat (n=3)
# [3] = whether in the free or the salt form; cited from earlier work
# [4] = test system: hairless rat skin; assay: Skin permeation test of granisetron hydrochloride, blister-type drug product (Example 5); assay type: in vitro ADME; details: in examples 4 and 5
# Protocol: In this experiment, the coating carrier was prepared for the entire surface of microneedles by using only 5 wt. % polyvinyl alcohol (PVA117), and the microneedles (800 pile/patch) were coated all over the surface with 30 μl/patch and dried for 12 h at room temperature for fixing. After piercing the skin with the microneedles, […] 32 wt. % aqueous solution of granisetron hydrochloride, 30 μl, was applied through the through-holes (openings) on the microneedle substrate. There were two control groups. In one of these, the microneedles were not given any coating and 30 μl of the drug solution alone was applied through the through-holes. In the other control group, an aqueous solution containing 5 wt. % of polyvinyl alcohol and 32 wt. % of granisetron hydrochloride was prepared, as before, as the coating carrier, and the microneedles (800 piles/patch) were coated all over the surface with 15 μl/patch of this coating carrier.
# Skin was then removed from the trunk of a hairless rat and fitted to a vertical acrylic cell (2.54 cm^2) with the dermis side facing the receptor layer, and the whole assembly was placed in a constant temperature chamber set at 37° C. […] The drug content of the receptor solution obtained at each time of sampling was measured by HPLC (Excitation: 298 nm, fluorescence: 353 nm). […]
"maximum flux, Free form ([1]; hairless, rat, 16 wt. %)","maximum flux, Salt ([1]; hairless, rat, 16 wt. %)",skin permeability [2],"amount of drug permeation ([1]; hairless, rat, 16 wt. %)",skin permeability [4],Structure (SMILES),"maximum flux, salt form compared with free form [1]",solubility in water [3]
60 μg/cm^2/hr,90 μg/cm^2/hr,good skin permeability,,,"CC(C)NCC(O)COc1ccc(COCCOC(C)C)cc1 (stereo not drawn) [Bisoprolol, bisoprolol]",higher maximum flux in their salt form than in their free form,
0.1< μg/cm^2/hr,0.1< μg/cm^2/hr,,about 1 μg,,"CCCN1C[C@H](CSC)C[C@@H]2c3cccc4[nH]cc(c34)C[C@H]21 [Pergolide, pergolide]",,almost no solubility in water; also recorded: extremely low solubility
,,,,good skin permeability,CN1C2CCCC1CC(NC(=O)c1nn(C)c3ccccc13)C2 (stereo not drawn) [granisetron hydrochloride],,
100 μg/cm^2/hr,180 μg/cm^2/hr,,,,"CCCN[C@H]1CCc2nc(N)sc2C1 [Pramipexol, pramipexol]",higher maximum flux in their salt form than in their free form,
